Measured values as given in patent US20230148299A1, “FEM1B PROTEIN BINDING AGENTS AND USES THEREOF” (The Regents Of The University Of California, priority 2020, published 2023).

Columns and labels:
BRD4 = molecular target: T1, BRD4 (Homo sapiens, UniProt O60885); assay: BRD4 degradation by Western blot in 231MFP breast cancer cells; format: cell-based; conditions: 231MFP cells, NJH-01-106 12 hours, MZ1 4 hours
T1 construct: endogenous in cells; host or cells: 231MFP breast cancer cells
Description: 231MFP breast cancer cells were treated for 12 hours with NJH-01-106, and 4 hours with known BRD4 PROTAC MZ1. BRD4 and loading control GAPDH levels were assessed by Western blotting following treatment with NJH-01-106 or MZ1, as described above, and are shown in FIG. 4.
Western Blot Protocol. Proteins were resolved by SDS-PAGE (4-20% TGX gels, Bio-Rad Laboratories, Inc.) and transferred to nitrocellulose membranes using the Trans-Blot Turbo transfer system (Bio-Rad). Membranes were blocked with 5% BSA in Tris-buffered saline containing Tween 20 (TBST) solution for 1 h at room temperature, washed in TBST and probed with primary antibody diluted in diluent, as recommended by the various manufacturers, overnight at 4° C. Primary antibodies used were: BRD4 (Cell Signaling Technologies #13440), GAPDH (ProteinTech 60004-1-Ig), FEM1B (ProteinTech 19544-1-AP). Following washes with TBST, the blots were incubated in the dark with secondary antibodies purchased from Li-Cor Biosciences and used at 1:10,000 dilution in 5% BSA in TBST at room temperature for 1 h. Blots were visualized using an Odyssey Li-Cor scanner after additional washes. Protein intensity was quantified using ImageJ software.

FEM1B-FNIP1 = FEM1B-FNIP1 (Homo sapiens, UniProt Q9UK73); assay: Fluorescence polarization between FEM1B and FNIP1 (covalent ligand screen); format: binding; conditions: DMSO = 100, FP between FEM1B and FNIP1; for remaining activity at 5 µM: compound at 5 μM, read-out: Normalized FP 5 μM; for activity at 50 µM: compound at 50 μM, read-out: Normalized FP 50 μM
FEM1B-FNIP1, sequence (Q9UK73 whole entry): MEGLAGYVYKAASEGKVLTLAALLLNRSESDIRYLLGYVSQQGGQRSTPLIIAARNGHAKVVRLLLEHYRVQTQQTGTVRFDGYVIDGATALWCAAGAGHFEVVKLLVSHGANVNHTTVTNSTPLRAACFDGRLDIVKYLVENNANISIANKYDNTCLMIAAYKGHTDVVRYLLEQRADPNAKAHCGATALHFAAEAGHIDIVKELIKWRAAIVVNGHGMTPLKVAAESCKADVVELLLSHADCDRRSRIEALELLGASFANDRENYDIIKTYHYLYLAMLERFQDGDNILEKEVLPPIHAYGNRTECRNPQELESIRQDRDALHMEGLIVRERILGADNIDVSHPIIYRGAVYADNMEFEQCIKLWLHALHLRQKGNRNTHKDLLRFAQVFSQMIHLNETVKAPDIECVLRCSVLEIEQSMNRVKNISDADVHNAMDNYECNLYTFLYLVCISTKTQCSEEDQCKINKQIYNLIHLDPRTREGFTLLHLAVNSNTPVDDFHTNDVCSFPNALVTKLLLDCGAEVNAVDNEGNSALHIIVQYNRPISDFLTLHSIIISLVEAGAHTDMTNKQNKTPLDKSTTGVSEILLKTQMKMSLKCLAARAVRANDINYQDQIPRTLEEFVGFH
Source text: FIG. 11. Fluorescence polarization screen to identify functional FEM1B-FNIP1-targeting covalent ligands.
(§1) FEM1B binds a conserved central degron in FNIP1. Deletion analysis of FNIP1 identifies a stretch of 20 amino acids that is required for its binding to FEM1B and its proteasomal degradation. FNIP1 variants were expressed in cells and tested for interaction with ^FLAGFEM1B by co-immunoprecipitation, and for degradation by measuring their abundance in the presence or absence of FEM1B. The FNIP1 degron is required for FEM1B binding and proteasomal degradation. […] FEM1B variants were immunoprecipitated and bound FNIP1 and FLCN were detected by Western blotting. The FNIP1 degron is sufficient to mediate FEM1B-dependent degradation. The FNIP1 degron was fused to GFP (GFP^degron) and expressed from the same plasmid as an IRES controlled mCherry. mCherry provides normalization for GFP fluorescence in each cell. […] Levels of GFP^degron and mCherry were determined by FACS, and their ratio is depicted for presence or absence of FEM1B variants. Deletion of FEM1B prevents FNIP1-degron dependent degradation. The FEM1B locus was deleted in 293T cells using CRISPR/Cas9. Cells were transfected with the GFP^degron/mCherry reporter, and analyzed for GFP and mCherry fluorescence by FACS. FEM1B directly binds the FNIP1 degron in vitro. A TAMRA-labeled FNIP1 degron peptide was incubated with purified FEMIB or the control CRL1 adaptor FBXL17, and binding was measured by fluorescence polarization of the peptide. The FNIP1 degron is sufficient to mediate CUL2^FEM1B-dependent ubiquitylation. The TAMRA-labeled FNIP1 degron was incubated with recombinant CUL2^FEM1B (unmodified or NEDD8-modified), E1, ubiquitin, ATP and the E2 enzymes UBE2D3 and/or UBE2R1. Ubiquitylation was monitored by gel electrophoresis and fluorescence detection.

[1] = system: GFP-Fnip1 degron reporter; assay: GFP-Fnip1 degron reporter (GFP/mCherry) by flow cytometry; format: cell-based; conditions: GFP/mCherry ratio by FACS
Description: HEK293T cells were transfected 24 hours before flow cytometery with the GFP-Fnip1 degron reporter+/−Fem1b.
FNIP1 variants were expressed in cells and tested for interaction with ^FLAGFEM1B by co-immunoprecipitation, and for degradation by measuring their abundance in the presence or absence of FEM1B. […] FEM1B variants were immunoprecipitated and bound FNIP1 and FLCN were detected by Western blotting. […] The FNIP1 degron was fused to GFP (GFP^degron) and expressed from the same plasmid as an IRES controlled mCherry. mCherry provides normalization for GFP fluorescence in each cell. […] Levels of GFP^degron and mCherry were determined by FACS, and their ratio is depicted for presence or absence of FEM1B variants. […] Cells were transfected with the GFP^degron/mCherry reporter, and analyzed for GFP and mCherry fluorescence by FACS. […] A TAMRA-labeled FNIP1 degron peptide was incubated with purified FEMIB or the control CRL1 adaptor FBXL17, and binding was measured by fluorescence polarization of the peptide. […] The TAMRA-labeled FNIP1 degron was incubated with recombinant CUL2^FEM1B (unmodified or NEDD8-modified), E1, ubiquitin, ATP and the E2 enzymes UBE2D3 and/or UBE2R1. Ubiquitylation was monitored by gel electrophoresis and fluorescence detection.

FEM1B = FEM1B (Homo sapiens, UniProt Q9UK73); assay: Fluorescence polarization binding of TAMRA-labeled FNIP1 degron peptide to recombinant FEM1B; conditions: degron peptide treated with agent
FEM1B, sequence (Q9UK73 whole entry): as above
Source text: as §1, with “The FEM1B locus was deleted in 293T cells using CRISPR/Cas9.” left out, “FEM1B directly binds the FNIP1 degron in vitro.” left out, “The FNIP1 degron is sufficient to mediate CUL2^FEM1B-dependent ubiquitylation. The TAMRA-labeled FNIP1 degron was incubated with recombinant CUL2^FEM1B (unmodified or NEDD8-modified), E1, ubiquitin, ATP and the E2 enzymes UBE2D3 and/or UBE2R1.” left out, “detection. […]” for “detection.”

Compound | degradation of BRD4 (BRD4) | remaining activity at 5 µM (FEM1B-FNIP1) [%] | activity at 50 µM (FEM1B-FNIP1) [%] | stability of GFP^degron reporter [1] | recognition of FNIP1 degron by FEM1B after treatment of degron with Cys-modifying agent (FEM1B)
Cc1sc2c(c1C)C(c1ccc(Cl)cc1)=N[C@@H](CC(=O)NCCCCCNC(=O)CN1CCOc3cc(N(CCC#N)C(=O)CCl)ccc31)c1nnc(C)n1-2 [EN106 linked to BRD4 inhibitor JQ1, (S)-2-chloro-N-(4-(2-((5-(2-(4-(4-chlorophenyl)-2,3,9-trimethyl-6H-thieno[3,2-f][1,2,4]triazolo[4,3-a][1,4]diazepin-6-yl)acetamido)pentyl)amino)-2-oxoethyl)-3,4-dihydro-2H-benzo[b][1,4]oxazin-7-yl)-N-(2-cyanoethyl)acetamide] | degradation of BRD4 |  |  |  | 
CC(Cl)C(=O)Nc1ccc2c(c1)OCCO2 (stereo not drawn) [EN-NJH-005] |  | 98.1 | 101 |  | 
O=C(CCl)Nc1cc2c(cc1Br)OCCO2 [EN-NJH-007] |  | 87.7 | 11.7 |  | 
O=C(CCl)N(Cc1cccs1)c1ccc2c(c1)OCCO2 [EN-NJH-009] |  | 74.8 | 6 |  | 
O=C(CCl)Nc1ccc2c(c1)OCCO2 [EN-NJH-013] |  | 93.1 | 21.3 |  | 
O=C(CCl)Nc1cc2c(cc1Cl)OCCO2 [EN-NJH-014] |  | 94.8 | 21.8 |  | 
COc1cc2c(cc1OC)N(C(=O)CCl)CC2 [EN-NJH-020] |  | 15.6 | 19.1 |  | 
O=C(CCl)N(CC=Cc1ccccc1)c1ccc2c(c1)OCCO2 [EN-NJH-021] |  | 86.4 | 26.8 |  | 
C#CCCCCNC(=O)CI [IAyne] |  |  |  | stabilizes GFP^degron in cells | 
Cc1ncsc1-c1ccc(CNC(=O)[C@@H]2C[C@@H](O)CN2C(=O)[C@@H](NC(=O)COCCOCCOCCNC(=O)C[C@@H]2N=C(c3ccc(Cl)cc3)c3c(sc(C)c3C)-n3c(C)nnc32)C(C)(C)C)cc1 [MZ1, reference compound] | degradation of BRD4 |  |  |  | 
CC(=O)N[C@@H](CS)C(=O)O [N-acetylcysteine] |  |  |  | does not affect the stability of the GFP^degron reporter | 
CCN1C(=O)C=CC1=O [N-ethylmaleimide] |  |  |  |  | strongly inhibited its recognition by FEM1B
CC(C)C[C@H](NC(=O)[C@H](CCc1ccccc1)NC(=O)CN1CCOCC1)C(=O)N[C@@H](Cc1ccccc1)C(=O)N[C@@H](CC(C)C)C(=O)[C@@]1(C)CO1 [carfilzomib] |  |  |  | stabilizes the GFP^degron reporter | 
NC(=O)CI [iodoacetamide] |  |  |  |  | strongly inhibited its recognition by FEM1B
antimycin A |  |  |  | stabilized GFP^degron | 

Second part, led by results:

degradation of BRD4 (BRD4) | remaining activity at 5 µM (FEM1B-FNIP1) [%] | activity at 50 µM (FEM1B-FNIP1) [%] | Compound | stability of GFP^degron reporter [1] | recognition of FNIP1 degron by FEM1B after treatment of degron with Cys-modifying agent (FEM1B)
 | 97.8 | 19.1 | C=CCOc1ccccc1CN(C(=O)CCl)c1ccc2c(c1)OCCO2 [EN-NJH-001] |  | 
 | 40.1 | 8.82 | CCOc1ccc(N(CCC#N)C(=O)CCl)cc1 [EN-NJH-002] |  | 
 | 54.1 | 2.7 | N#CCCN(C(=O)CCl)c1cccc(Cl)c1 [EN-NJH-003] |  | 
 | 76.1 | 11.8 | CCN(C(=O)CCl)c1ccc2c(c1)OCO2 [EN-NJH-004] |  | 
 | 89.7 | 21.5 | C=CCOc1ccccc1CN(C(=O)CCl)c1ccc2c(c1)OCO2 [EN-NJH-006] |  | 
 | 97.9 | 113 | CC(Cl)C(=O)N(CCC#N)c1ccccc1 (stereo not drawn) [EN-NJH-008] |  | 
 | 46.8 | 14.6 | N#CCCN(C(=O)CCl)c1ccccc1F [EN-NJH-010] |  | 
 | 45.8 | 4.29 | Cc1ccc(N(CCC#N)C(=O)CCl)cc1 [EN-NJH-011] |  | 
 | 90.4 | 24.8 | COc1ccccc1N(CCC#N)C(=O)CCl [EN-NJH-012] |  | 
 | 36.3 | 16.3 | N#CCCN(C(=O)CCl)c1ccc(F)cc1 [EN-NJH-015] |  | 
 | 43.7 | 11.3 | Cc1ccc(N(CCC#N)C(=O)CCl)cc1C [EN-NJH-016] |  | 
 | 63.7 | 17.4 | Cc1cc(C)cc(N(CCC#N)C(=O)CCl)c1 [EN-NJH-017] |  | 
 | 16.4 | 12 | Cc1cc(N(CCC#N)C(=O)CCl)ccc1Cl [EN-NJH-018] |  | 
 | 44.1 | 19.4 | N#CCCN(C(=O)CCl)c1ccccc1 [EN-NJH-019] |  | 
 | 32.8 | 9.87 | CC(C)(C)OC(=O)N1CCOc2ccc(N(CCC#N)C(=O)CCl)cc21 [NJH-01-073] |  | 
 | 31.3 | 14.2 | CC(=O)N1CCOc2ccc(N(CCC#N)C(=O)CCl)cc21 [NJH-01-085] |  | 
 | 26.5 | 15.2 | CC(C)(C)OC(=O)CN1CCOc2cc(N(CCC#N)C(=O)CCl)ccc21 [NJH-01-093] |  | 
 | 105 | 115 | C=CC(=O)N(CCC#N)c1ccc2c(c1)OCCO2 [NJH-01-098] |  | 
 | 54.9 | 12.6 | COc1cccc(CN(C(=O)CCl)c2ccc3c(c2)OCCO3)c1 [SB-02-092] |  | 
